Laboratory results from US9382197B2, “Substituted hydroxamic acids and uses thereof” (Millennium Pharmaceuticals, Inc., priority 2010, dated 2016).
pIC50: −log10 of the molar value.

molecular target: T1, purified human HDAC6 (Homo sapiens, UniProt Q9UBN7); experiment: HDAC6 Enzyme Assay; assay type: biochemical; settings: bin: greater than 500 nM and less than 1 μM (lower bound in nM, upper bound in μM)
T1 construct: purchased BPS Bioscience 5006
T1 sequence (Q9UBN7 1-1215): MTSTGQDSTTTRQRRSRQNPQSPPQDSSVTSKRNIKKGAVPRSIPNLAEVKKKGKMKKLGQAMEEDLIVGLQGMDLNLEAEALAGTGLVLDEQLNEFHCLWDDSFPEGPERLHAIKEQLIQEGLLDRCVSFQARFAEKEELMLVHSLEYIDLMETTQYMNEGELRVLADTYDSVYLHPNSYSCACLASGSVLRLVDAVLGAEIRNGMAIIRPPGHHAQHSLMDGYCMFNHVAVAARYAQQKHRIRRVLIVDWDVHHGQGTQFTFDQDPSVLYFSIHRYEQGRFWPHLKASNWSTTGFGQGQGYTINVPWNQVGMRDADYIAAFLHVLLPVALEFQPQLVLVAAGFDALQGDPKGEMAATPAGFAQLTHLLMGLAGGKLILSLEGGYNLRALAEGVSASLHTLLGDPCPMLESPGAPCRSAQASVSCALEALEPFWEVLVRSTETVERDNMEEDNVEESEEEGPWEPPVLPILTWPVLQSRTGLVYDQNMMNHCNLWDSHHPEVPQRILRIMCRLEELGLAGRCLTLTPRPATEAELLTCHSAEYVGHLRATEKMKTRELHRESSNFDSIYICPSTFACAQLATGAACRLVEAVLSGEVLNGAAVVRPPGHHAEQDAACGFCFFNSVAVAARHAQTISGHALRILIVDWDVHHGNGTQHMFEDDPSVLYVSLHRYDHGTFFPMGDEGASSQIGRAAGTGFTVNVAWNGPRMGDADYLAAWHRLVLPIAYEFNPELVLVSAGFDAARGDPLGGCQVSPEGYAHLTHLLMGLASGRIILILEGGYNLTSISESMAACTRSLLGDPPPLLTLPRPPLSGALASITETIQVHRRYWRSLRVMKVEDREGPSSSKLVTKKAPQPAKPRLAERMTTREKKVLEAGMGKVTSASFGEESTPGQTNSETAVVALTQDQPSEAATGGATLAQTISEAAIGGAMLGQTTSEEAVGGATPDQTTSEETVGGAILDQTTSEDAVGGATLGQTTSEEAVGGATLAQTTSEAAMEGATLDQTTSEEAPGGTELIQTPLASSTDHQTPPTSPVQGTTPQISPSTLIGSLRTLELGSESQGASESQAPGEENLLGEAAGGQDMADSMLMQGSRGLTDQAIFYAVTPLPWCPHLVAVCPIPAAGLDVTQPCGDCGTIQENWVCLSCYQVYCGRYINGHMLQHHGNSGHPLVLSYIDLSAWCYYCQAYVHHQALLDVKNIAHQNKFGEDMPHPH
Procedure, shortened: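 Purified human HDAC6 incubated 1 h at 30 °C with Ac-Arg-Gly-Lys(Ac)-AMC and compound; trichostatin A stop, trypsin release of AMC, fluorescence Ex 340/Em 460 nm. IC50 from concentration–response relative to DMSO.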

| IC50 | Compound |
| --- | --- |
| 500 to 1000 nM | CC(C)(C)C(NC(=O)c1cc(F)cc(F)c1)c1ccc(C(=O)NO)cc1 (centres unmarked) [Compound I-251, 3,5-difluoro-N-(1-{4-[(hydroxyamino)carbonyl]phenyl}-2,2-dimethylpropyl)benzamide] |
| 500 to 1000 nM | CC(NS(=O)(=O)c1ccc2nsnc2c1)c1ccc(C(=O)NO)cc1 (centres unmarked) [Compound I-272, 4-{1-[(2,1,3-benzothiadiazol-5-ylsulfonyl)amino]ethyl}-N-hydroxybenzamide] |
| 500 to 1000 nM | CC(C)C(NC(=O)Cc1cccc(C(F)(F)F)c1)c1ccc(C(=O)NO)cc1 (centres unmarked) [Compound I-195, N-hydroxy-4-[2-methyl-1-({[3-(trifluoromethyl)phenyl]acetyl}amino)propyl]benzamide] |
| 500 to 1000 nM | CC(NC(=O)c1cc(C(C)(C)C)nn1C)c1cccc(C(=O)NO)c1 (centres unmarked) [Compound I-309, 3-tert-butyl-N-(1-{3-[(hydroxyamino)carbonyl]phenyl}ethyl)-1-methyl-1H-pyrazole-5-carboxamide] |

same assay, conditions: bin: greater than 1 μM

| pIC50 | Compound |
| --- | --- |
| < 6.00 | COc1cc(C(=O)NO)ccc1C(C)NC(=O)C12CC3CC(CC(C3)C1)C2 (centres unmarked) [Compound I-483, N-(1-{4-[(hydroxyamino)carbonyl]-2-methoxyphenyl}ethyl)adamantane-1-carboxamide] |
| < 6.00 | Cc1cc(C(=O)NO)ccc1C(C)NC(=O)c1cccn1C (centres unmarked) [Compound I-486, N-(1-{4-[(hydroxyamino)carbonyl]-2-methylphenyl}ethyl)-1-methyl-1H-pyrrole-2-carboxamide] |
| < 6.00 | CC(NS(=O)(=O)c1ccc(C(F)(F)F)cc1)c1ccc(C(=O)NO)cc1 (centres unmarked) [Compound I-488, N-hydroxy-4-[1-({[4-(trifluoromethyl)phenyl]sulfonyl}amino)ethyl]benzamide] |
| < 6.00 | Cc1noc(C)c1C(=O)NC(C)c1ccc(C(=O)NO)cc1 (centres unmarked) [Compound I-326, N-(1-{4-[(hydroxyamino)carbonyl]phenyl}ethyl)-3,5-dimethylisoxazole-4-carboxamide] |
| < 6.00 | Cc1c(C(=O)N[C@H](C)c2cccc(C(=O)NO)c2)oc2ccccc12 [Compound I-169, N-((1R)-1-{3-[(hydroxyamino)carbonyl]phenyl}ethyl)-3-methyl-1-benzofuran-2-carboxamide] |
| < 6.00 | CC(NC(=O)c1cccn1C)c1cccc(C(=O)NO)c1 (centres unmarked) [Compound I-263, N-(1-{3-[(hydroxyamino)carbonyl]phenyl}ethyl)-1-methyl-1H-pyrrole-2-carboxamide] |

same assay, conditions: purified human HDAC6, substrate Ac-Arg-Gly-Lys(Ac)-AMC, 1 hour at 30° C.; reported as bins

| pIC50 | Compound |
| --- | --- |
| 6.30 to 7.00 | CC(C)C(NC(=O)C1(c2ccccc2)CCCC1)c1ccc(C(=O)NO)cc1 (centres unmarked) [Compound I-258, N-hydroxy-4-(2-methyl-1-{[(1-phenylcyclopentyl)carbonyl]amino}propyl)benzamide] |
| > 7.00 | CC(C)(C)C(NC(=O)c1cc2ccccc2s1)c1ccc(C(=O)NO)cc1 (centres unmarked) [Compound I-308, N-(1-{4-[(hydroxyamino)carbonyl]phenyl}-2,2-dimethylpropyl)-1-benzothiophene-2-carboxamide] |
| 6.30 to 7.00 | CC(NC(=O)C1CCC1)c1ccc(C(=O)NO)cc1 (centres unmarked) [Compound I-21, 4-{1-[(cyclobutylcarbonyl)amino]ethyl}-N-hydroxybenzamide] |
| > 7.00 | CC(NC(=O)Nc1cccc2ccccc12)c1ccc(C(=O)NO)cc1 (centres unmarked) [Compound I-6, N-hydroxy-4-(1-{[(1-naphthylamino)carbonyl]amino}ethyl)benzamide] |
| > 7.00 | C[C@@H](NC(=O)NC12CC3CC(CC(C3)C1)C2)c1ccc(C(=O)NO)cc1 [Compound I-374, 4-[(1R)-1-({[1-adamantylamino]carbonyl}amino)ethyl]-N-hydroxybenzamide] |
| 6.30 to 7.00 | CC(NC(=O)c1c[nH]c2ccccc12)c1cccc(C(=O)NO)c1 (centres unmarked) [Compound I-10, N-(1-{3-[(hydroxyamino)carbonyl]phenyl}ethyl)-1H-indole-3-carboxamide] |
| > 7.00 | CC(NC(=O)Nc1cccc2nsnc12)c1ccc(C(=O)NO)cc1 (centres unmarked) [Compound I-293, 4-(1-{[(2,1,3-benzothiadiazol-4-ylamino)carbonyl]amino}ethyl)-N-hydroxybenzamide] |
| > 7.00 | C[C@@H](NC(=O)c1cc(Cl)c(Cl)n1C)c1ccc(C(=O)NO)cc1 [Compound I-359, 4,5-dichloro-N-((1R)-1-{4-[(hydroxyamino)carbonyl]phenyl}ethyl)-1-methyl-1H-pyrrole-2-carboxamide] |
| 6.30 to 7.00 | Cc1ccc2[nH]c(C(=O)NC(C)c3cccc(C(=O)NO)c3)cc2c1 (centres unmarked) [Compound I-342, N-(1-{3-[(hydroxyamino)carbonyl]phenyl}ethyl)-5-methyl-1H-indole-2-carboxamide] |
| > 7.00 | Cc1c(C(=O)N[C@@H](c2ccc(C(=O)NO)cc2)C(F)(F)F)oc2ccccc12 [Compound I-304, 3-methyl-N-((1S)-2,2,2-trifluoro-1-{4-[(hydroxyamino)carbonyl]phenyl}ethyl)-1-benzofuran-2-carboxamide] |
| 6.30 to 7.00 | CC(NS(=O)(=O)c1ccc(C(F)(F)F)cc1)c1ccc(C(=O)NO)cc1 (centres unmarked) [Compound I-488, N-hydroxy-4-[1-({[4-(trifluoromethyl)phenyl]sulfonyl}amino)ethyl]benzamide] |
| > 7.00 | CC(NC(=O)C1(c2ccc(Cl)cc2)CCC1)c1ccc(C(=O)NO)cc1 (centres unmarked) [Compound I-110, 4-[1-({[1-(4-chlorophenyl)cyclobutyl]carbonyl}amino)ethyl]-N-hydroxybenzamide] |
| 6.30 to 7.00 | COc1cccc(S(=O)(=O)NC(C)c2ccc(C(=O)NO)cc2)c1 (centres unmarked) [Compound I-23, N-hydroxy-4-(1-{[(3-methoxyphenyl)sulfonyl]amino}ethyl)benzamide] |
| 6.30 to 7.00 | C[C@@H](NC(=O)N[C@H](C)c1ccc(C(=O)NO)cc1)c1ccccc1 [Compound I-517, N-hydroxy-4-[(1R)-1-({[(1R)-1-phenylethyl]carbamoyl}amino)ethyl]benzamide] |
| 6.30 to 7.00 | Cc1oc(-c2ccccc2)nc1CC(=O)NC(c1ccc(C(=O)NO)cc1)C(C)C (centres unmarked) [Compound I-48, N-hydroxy-4-(2-methyl-1-{[(5-methyl-2-phenyl-1,3-oxazol-4-yl)acetyl]amino}propyl)benzamide] |
| > 7.00 | CC(NC(=O)c1cccn1C)c1ccc(C(=O)NO)cc1 (centres unmarked) [Compound I-356, N-(1-{4-[(hydroxyamino)carbonyl]phenyl}ethyl)-1-methyl-1H-pyrrole-2-carboxamide] |
| 6.30 to 7.00 | CC(NS(=O)(=O)c1cc2ccccc2s1)c1ccc(C(=O)NO)cc1 (centres unmarked) [Compound I-369, 4-{1-[(1-benzothien-2-ylsulfonyl)amino]ethyl}-N-hydroxybenzamide] |
| > 7.00 | CC(NC(=O)c1ccccc1Cl)c1ccc(C(=O)NO)cc1 (centres unmarked) [Compound I-269, 2-chloro-N-(1-{4-[(hydroxyamino)carbonyl]phenyl}ethyl)benzamide] |
| > 7.00 | CC(C)C(NC(=O)c1ccc(-c2ccc(F)cc2)cc1)c1ccc(C(=O)NO)cc1 (centres unmarked) [Compound I-143, 4′-fluoro-N-(1-{4-[(hydroxyamino)carbonyl]phenyl}-2-methylpropyl)biphenyl-4-carboxamide] |
| > 7.00 | C[C@@H](NC(=O)c1cccn1C)c1ccc(C(=O)NO)cc1 [Compound I-102, N-((1R)-1-{4-[(hydroxyamino)carbonyl]phenyl}ethyl)-1-methyl-1H-pyrrole-2-carboxamide] |
| > 7.00 | CC(C)C(NC(=O)c1cc2ccccc2s1)c1ccc(C(=O)NO)cc1 (centres unmarked) [Compound I-94, N-(1-{4-[(hydroxyamino)carbonyl]phenyl}-2-methylpropyl)-1-benzothiophene-2-carboxamide] |
| > 7.00 | CC(NC(=O)C1CCCCC1)c1ccc(C(=O)NO)cc1 (centres unmarked) [Compound I-208, 4-{1-[(cyclohexylcarbonyl)amino]ethyl}-N-hydroxybenzamide] |
| > 7.00 | C[C@@H](NC(=O)c1cc2ccccc2n1C)c1ccc(C(=O)NO)cc1 [Compound I-115, N-((1R)-1-{4-[(hydroxyamino)carbonyl]phenyl}ethyl)-1-methyl-1H-indole-2-carboxamide] |
| > 7.00 | C[C@@H](NC(=O)Nc1c(F)cccc1F)c1ccc(C(=O)NO)cc1 [Compound I-518, 4-[(1R)-1-({[(2,6-difluorophenyl)amino]carbonyl}amino)ethyl]-N-hydroxybenzamide] |
| > 7.00 | Cc1ccc(NC(=O)NC(C)c2ccc(C(=O)NO)cc2)cc1Cl (centres unmarked) [Compound I-103, 4-[1-({[(3-chloro-4-methylphenyl)amino]carbonyl}amino)ethyl]-N-hydroxybenzamide] |
